The values below come from US20220265591A1, “USE OF AN OSMOLYTE IN MANUFACTURE OF A MEDICAMENT FOR TREATMENT OF OCULAR DISORDERS” (SINGAPORE HEALTH SERVICES PTELTD, priority 2019, published 2022).

This test concerns the target T1, preformed amyloid fibrils from TGFBIp611-633 G623R peptide (Homo sapiens, UniProt Q15582, G623R).
T1 construct: The 23-amino acid long peptide (TGFBIp 611-633 c.623 G>R) from the 4th FAS1 domain; purchased Synpeptide Co Ltd, Shanghai, China; host or cells: synthetic peptide
Briefly: ThT fluorescence microscopy, disaggregation of preformed amyloid fibrils. As to conditions: 200 mM and 320 mM. The procedure: The ability of osmolytes to disaggregate the preformed amyloid fibrils were investigated further by fluorescence microscopy after ThT staining. The peptide samples collected at the various time points above were incubated at a ratio of 1:1 ratio of thpeptide solution to ThT in the dark for 30 minutes to obtain solutions for fluorescence microscopy. 25 μl of the solutions were taken on to slides with coverslips and visualized under a fluorescent microscope. Three representative images from each time point under a given condition was used for the quantitation of fluorescence. Image J software was used to quantify the signal from the images and the values for each time point per osmolyte treatment were normalised to the untreated sample at that particular time point.
The inhibition effect of taurine on the preformed amyloid fibrils was investigated further by fluorescence microscopy after ThT staining. The samples collected at the various time points above were incubated ThT at a ratio of 1:1 ratio in the dark for 30 minutes to obtain solutions for fluorescence microscopy. 25 μl of the solutions were taken on to slides with coverslips and visualized under a fluorescent microscope.

SMILES strings stand for the structures.

T1 sequence (Q15582 611-633 G623R limits assumed): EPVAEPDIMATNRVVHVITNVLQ

With `NCCS(=O)(=O)O` [Taurine, taurine], the “fluorescent intensity under microscope, preformed fibrils” value is given as “reduction in fluorescent intensity”.
